{"source": "patent US8883470B2", "about": "“Fermentation of carbohydrate” (Anitox Corporation, priority 2009, dated 2014)", "key": {"[1]": {"tested_on": "wild yeast/mold", "procedure": "(§1) Wild Lactobacillus and yeast/mold profile were determined in four studies using corn treated with 0 (control), 0.45 and 0.90 Kg/MT Formaldehyde (HCHO). Ground corn and water were mixed and incubated at room temperature (21-23° C.) in an anaerobic environment for 24 hours. To 5 gr of ground corn 45 ml of Butterfield was added and incubated overnight in a closed container while stirring at room temperature. After incubation, samples were taken to enumerate wild yeast/mold and Lactobacillus."}, "[2]": {"tested_on": "Wild Lactobacillus", "procedure": "as §1"}, "[3]": {"tested_on": "Lactobacillus plantarum (B-4496)", "settings": "control also 0", "procedure": "(§2) Whole corn obtained from a commercial source was treated with formalin (37% formaldehyde solution) at 0, 0.9, 1.8 and 2.7 kg/MT. After 24 h, 30 g of corn from each treatment was finely ground and added to glass fermenters with water, enzyme and yeast as described below. Lactobacillus plantarum (B-4496) grown in MRS broth was added to the fermentation bottles (0.2 ml of 6.2×10^5 cfu/g). Samples were taken after 72 hours fermentation for yeast and Lactobacillus counts. The whole content of the fermentations bottles were centrifuged for 30 minutes at 5000 rpm, filtered through cheesecloth and through a 0.45 u tilter to quantify ethanol production. Treatments are listed on the following table"}, "[4]": {"tested_on": "Yeast", "procedure": "as §2"}, "[5]": {"tested_on": "Yeast", "remark": "listed apart in the source", "quoted_text": "(§5) After 24 h, 30 g of corn from each treatment was finely ground and added to glass fermenters with water, enzyme and yeast as described below. Lactobacillus plantarum (B-4496) grown in MRS broth was added to the fermentation bottles (0.1 ml of 6.2×10^10 cfu/mL). Samples were taken after 72 hours fermentation for yeast and Lactobacillus counts."}, "[6]": {"tested_on": "Lactobacillus", "procedure": "(§3) Ethanol production and microbiological profile were analyzed in four fermentation studies using corn treated with 0 (control), 0.45 and 0.90 Kg/MT Formaldehyde. Ground corn and water were mixed and incubated at room temperature in a air-tight 250-ml fermenter jars for 6 hours. This was done in order to increase the naturally occurring Lactobacillus in corn. Previous studies have shown that the level of Lactobacillus is less than 100 cfu/gr in corn. The other reagents were added into the fermenters as described in the following table.\n(§4) After the addition of all the reagents, fermenters were sealed with a cap containing a water trap. Fermenters were kept under constant stirring (low speed) at room temperature (21-23° C.) for 72 hours before sampling for yeast, Lactobacillus and alcohol production. Lactobacillus counts were determined on MRS broth containing 1.5% Difco™ Agar. Plates were incubated in an anaerobic chamber at 37-C for 48 hours and colonies enumerated. Yeast counts were determined on PDA plates. Plates were incubated at 27° C. for 48 hours and colonies enumerated. Alcohol was determined by FT-IR (FOSS system)."}, "[7]": {"tested_on": "Yeast", "procedure": "as §3, §4", "remark": "listed apart in the source"}, "[8]": {"tested_on": "Lactobacillus plantarum (B-4496)", "quoted_text": "as §5"}, "[9]": {"tested_on": "Lactobacillus", "settings": "600 mg/L, cited from earlier work"}, "[10]": {"tested_on": "Lactobacillus", "settings": "during fermentation; cited from earlier work"}, "[11]": {"tested_on": "Yeast", "settings": "8 g/L; beet molasses batch fermentation; cited from earlier work"}, "[12]": {"tested_on": "yeast populations", "settings": "100 to 400 mg/L; cited from earlier work"}, "[13]": {"tested_on": "Yeast", "settings": "cited from earlier work"}}, "note": "Like-named read-outs stand apart in the source and are kept apart here.", "data": [{"compound": "C=O", "note": "[Formaldehyde, formaldehyde]", "values": [{"measurement": "Yeast (cfu/gr) after 24-h Incubation", "setting": "[1]; 0.45 kg/MT, Study 1", "result": "3.0 × 10^5 cfu/gr"}, {"measurement": "Yeast (cfu/gr) after 24-h Incubation", "setting": "[1]; 0.45 kg/MT, Study 2", "result": "7.0 × 10^5 cfu/gr"}, {"measurement": "Yeast (cfu/gr) after 24-h Incubation", "setting": "[1]; 0.45 kg/MT, Study 3", "result": "1.6 × 10^5 cfu/gr"}, {"measurement": "Yeast (cfu/gr) after 24-h Incubation", "setting": "[1]; 0.45 kg/MT, Study 4", "result": "3.2 × 10^5 cfu/gr"}, {"measurement": "Yeast (cfu/gr) after 24-h Incubation", "setting": "[1]; 0.9 kg/MT, Study 1", "result": "7.6 × 10^4 cfu/gr"}, {"measurement": "Yeast (cfu/gr) after 24-h Incubation", "setting": "[1]; 0.9 kg/MT, Study 2", "result": "5.6 × 10^6 cfu/gr"}, {"measurement": "Yeast (cfu/gr) after 24-h Incubation", "setting": "[1]; 0.9 kg/MT, Study 3", "result": "2.0 × 10^3 cfu/gr"}, {"measurement": "Yeast (cfu/gr) after 24-h Incubation", "setting": "[1]; 0.9 kg/MT, Study 4", "result": "2.6 × 10^5 cfu/gr"}, {"measurement": "Lactobacillus (cfu/gr) after 24-h Incubation", "setting": "[2]; 0.45 kg/MT, Study 1", "result": "4.0 × 10^5 cfu/gr"}, {"measurement": "Lactobacillus (cfu/gr) after 24-h Incubation", "setting": "[2]; 0.45 kg/MT, Study 2", "result": "9.3 × 10^5 cfu/gr"}, {"measurement": "Lactobacillus (cfu/gr) after 24-h Incubation", "setting": "[2]; 0.45 kg/MT, Study 3", "result": "2.9 × 10^4 cfu/gr"}, {"measurement": "Lactobacillus (cfu/gr) after 24-h Incubation", "setting": "[2]; 0.45 kg/MT, Study 4", "result": "7.7 × 10^5 cfu/gr"}, {"measurement": "Lactobacillus (cfu/gr) after 24-h Incubation", "setting": "[2]; 0.9 kg/MT, Study 1", "result": "6.2 × 10^4 cfu/gr"}, {"measurement": "Lactobacillus (cfu/gr) after 24-h Incubation", "setting": "[2]; 0.9 kg/MT, Study 2", "result": "1.2 × 10^4 cfu/gr"}, {"measurement": "Lactobacillus (cfu/gr) after 24-h Incubation", "setting": "[2]; 0.9 kg/MT, Study 3", "result": "9.0 × 10^3 cfu/gr"}, {"measurement": "Lactobacillus (cfu/gr) after 24-h Incubation", "setting": "[2]; 0.9 kg/MT, Study 4", "result": "8.1 × 10^4 cfu/gr"}, {"measurement": "Lactobacillus (cfu/ml) 72 h", "setting": "[3]; 0.9 kg/MT", "result": 0, "unit": "cfu/ml"}, {"measurement": "Lactobacillus (cfu/ml) 72 h", "setting": "[3]; 1.8 kg/MT", "result": 0, "unit": "cfu/ml"}, {"measurement": "Lactobacillus (cfu/ml) 72 h", "setting": "[3]; 2.7 kg/MT", "result": 0, "unit": "cfu/ml"}, {"measurement": "Yeast (cfu/ml) 72 h", "setting": "[4]; 0.9 kg/MT", "result": "9.50 × 10^8 cfu/ml"}, {"measurement": "Yeast (cfu/ml) 72 h", "setting": "[4]; 1.8 kg/MT", "result": "6.60 × 10^8 cfu/ml"}, {"measurement": "Yeast (cfu/ml) 72 h", "setting": "[4]; 2.7 kg/MT", "result": "4.20 × 10^8 cfu/ml"}, {"measurement": "Yeast (cfu/ml) 72 h", "setting": "[5]; 0.9 kg/MT", "result": "8.8 × 10^8 cfu/ml"}, {"measurement": "Yeast (cfu/ml) 72 h", "setting": "[5]; 1.8 kg/MT", "result": "6.6 × 10^8 cfu/ml"}, {"measurement": "Yeast (cfu/ml) 72 h", "setting": "[5]; 2.7 kg/MT", "result": "8.0 × 10^8 cfu/ml"}, {"measurement": "Lactobacillus (cfu/gr) after 72-h Fermentation", "setting": "[6]; 0.45 kg/MT, Study 9", "result": "8.5 × 10^8 cfu/gr"}, {"measurement": "Lactobacillus (cfu/gr) after 72-h Fermentation", "setting": "[6]; 0.45 kg/MT, Study 10", "result": "5.2 × 10^8 cfu/gr"}, {"measurement": "Lactobacillus (cfu/gr) after 72-h Fermentation", "setting": "[6]; 0.45 kg/MT, Study 12", "result": "8.9 × 10^8 cfu/gr"}, {"measurement": "Lactobacillus (cfu/gr) after 72-h Fermentation", "setting": "[6]; 0.9 kg/MT, Study 9", "result": "7.4 × 10^8 cfu/gr"}, {"measurement": "Lactobacillus (cfu/gr) after 72-h Fermentation", "setting": "[6]; 0.9 kg/MT, Study 10", "result": "4.3 × 10^8 cfu/gr"}, {"measurement": "Lactobacillus (cfu/gr) after 72-h Fermentation", "setting": "[6]; 0.9 kg/MT, Study 12", "result": "9.4 × 10^8 cfu/gr"}, {"measurement": "Yeast (cfu/gr) after 72-h Fermentation", "setting": "[7]; 0.45 kg/MT, Study 9", "result": "9.5 × 10^8 cfu/gr"}, {"measurement": "Yeast (cfu/gr) after 72-h Fermentation", "setting": "[7]; 0.45 kg/MT, Study 10", "result": "1.2 × 10^9 cfu/gr"}, {"measurement": "Yeast (cfu/gr) after 72-h Fermentation", "setting": "[7]; 0.45 kg/MT, Study 11", "result": "4.7 × 10^9 cfu/gr"}, {"measurement": "Yeast (cfu/gr) after 72-h Fermentation", "setting": "[7]; 0.45 kg/MT, Study 12", "result": "1.8 × 10^9 cfu/gr"}, {"measurement": "Yeast (cfu/gr) after 72-h Fermentation", "setting": "[7]; 0.9 kg/MT, Study 9", "result": "7.4 × 10^8 cfu/gr"}, {"measurement": "Yeast (cfu/gr) after 72-h Fermentation", "setting": "[7]; 0.9 kg/MT, Study 10", "result": "1.1 × 10^9 cfu/gr"}, {"measurement": "Yeast (cfu/gr) after 72-h Fermentation", "setting": "[7]; 0.9 kg/MT, Study 11", "result": "3.6 × 10^9 cfu/gr"}, {"measurement": "Yeast (cfu/gr) after 72-h Fermentation", "setting": "[7]; 0.9 kg/MT, Study 12", "result": "1.8 × 10^9 cfu/gr"}, {"measurement": "Lactobacillus (cfu/ml) 72 h", "setting": "[8]; 0.9 kg/MT", "result": "9.8 × 10^7 cfu/ml"}, {"measurement": "Lactobacillus (cfu/ml) 72 h", "setting": "[8]; 1.8 kg/MT", "result": "4.7 × 10^7 cfu/ml"}, {"measurement": "Lactobacillus (cfu/ml) 72 h", "setting": "[8]; 2.7 kg/MT", "result": "3.7 × 10^7 cfu/ml"}, {"measurement": "decrease in cfu's of Lactobacillus", "setting": "[8]; Lactobacillus added at higher concentrations", "result": 1, "unit": "log"}]}, {"compound": "O=C(O)CCC(=O)O", "note": "[Succinic acid]", "values": [{"measurement": "reduction of Lactobacillus concentrations", "setting": "[9]; by itself", "result": 78, "unit": "%"}, {"measurement": "reduction of Lactobacillus concentrations", "setting": "[9]; in the presence of ethanol", "result": "up to 96%"}]}, {"compound": "NC(N)=O.OO", "note": "[UHP, Urea hydrogen peroxide]", "values": [{"measurement": "bactericidal activity against Lactobacillus", "setting": "[10]", "result": "excellent bactericidal activity"}]}, {"compound": "CC(O)C(=O)O", "note": "(centres unmarked) [lactic acid]", "values": [{"measurement": "reduction of alcohol production rate", "setting": "[11]", "result": 80, "unit": "%"}, {"measurement": "reduction of yeast viability", "setting": "[11]", "result": 95, "unit": "%"}]}, {"compound": "O=S(O)O", "note": "[sulfite]", "values": [{"measurement": "effect on yeast populations", "setting": "[12]", "result": "did not affect yeast populations"}]}, {"compound": "virginiamycin", "values": [{"measurement": "inhibition of the yeast", "setting": "[13]", "result": "does not significantly inhibit the yeast"}]}]}
